Measured values published in patent US12161647B2, “Treating hearing loss” (Massachusetts Eye and Ear Infirmary, priority 2012, dated 2024).

Columns and labels:
[1] = tested on: organ of Corti explants from Pou4f3-Cre; Mos-iCsp3 double transgenic mice; experiment: Organ of Corti explants after dimerizer-induced hair cell ablation; assay type: cell-based, mouse
Source text: For the experiments using inner ear spheres, C57BL/6 (Jackson Labs) or Math1-nGFP reporter mouse (19) (a gift from Jane Johnson, University of Texas) of both sexes were used. To create organ of Corti explants with ablated hair cells, Mos-iCsp3 mice (20) were crossed with Pou4f3-Cre mice (6) (a gift from Douglas Vetter, Tufts University). For all in vivo experiments, we used 4-week-old Cre reporter line, mT/mG (Jackson Labs), crossed to a Sox2-CreER mouse (47) (a gift from Konrad Hochedlinger, Mass General Hospital). After genotyping, double transgenic animals were used for lineage tracing. We used young adult wild-type littermates of the mT/mG; Sox2-CreER mice to prevent strain effects in the response to noise, which are known to vary depending on background (22, 48). Mice were genotyped by PCR. […]
For explants, the organs of Corti were fixed for 15 min with 4% paraformaldehyde in PBS. […] Primary antibodies were detected with secondary antibodies conjugated with Alexa 488 and 647 (Molecular Probes). The samples were stained with rhodamine phalloidin (Invitrogen) for 15 min and viewed by confocal fluorescence microscopy (TCS SP5, Leica).
Cell counting for spheres was performed with MetaMorph software. The cell number was determined from DAPI- or Hoechst-positive nuclei. […] For explants, inner hair cells, outer hair cells, and supporting cells in the outer hair cell region were counted on cochlear whole mounts. […] High-power images of the full-length cochlea or cochlear explant cultures were assembled and analyzed in PhotoShop CS4 (Adobe). ImageJ software (NIH) was used to measure the total length of cochlear whole mounts and the length of individual counted segments. The total number of inner hair cells, outer hair cells, and supporting cells in the outer hair cell region was counted in each of four cochlear segments of 1200-1400 μm (apical, mid-apical, mid-basal, and basal). Density (cells per 100 μm) was then calculated for each segment. […] The number of Sox2-lineage-positive cells identified by GFP was counted by the same method. […]

noise-damaged cochlea = experiment: ABR after systemic LY411575 in noise-damaged mice; assay type: in vivo, mouse
Experimental: 4-week-old mice were exposed free-field, awake and unrestrained, in a small reverberant chamber (22). Acoustic trauma was produced by a 2 h exposure to an 8-16 kHz octave band noise presented at 116 dB SPL. The exposure stimulus was generated by a custom white-noise source, filtered (Brickwall Filter with a 60 dB/octave slope), amplified (Crown power amplifier), and delivered (JBL compression driver) through an exponential horn fitted securely to a hole in the top of a reverberant box.
[…] Hearing was measured by ABR at 1 d before, 2 d, 1, 2 week, 1, 2 and 3 months after noise exposure.
Mice were anesthetized with ketamine (100 mg/kg i.p.) and xylazine (20 mg/kg i.p.). Needle electrodes were inserted at vertex and pinna, with a ground near the tail. ABRs were evoked with 5-ms tone pips (0.5-ms rise-fall with a cos^2 onset envelope delivered at 35/s). The response was amplified, filtered and averaged in a LabVIEW-driven data-acquisition system. Sound level was raised in 5 dB steps from ≥10 dB below threshold <80 dB SPL. At each sound level, 1024 responses were averaged (with stimulus polarity alternated), using an “artifact reject,” whereby response waveforms were discarded when peak-to-peak response amplitude exceeded 15 μV. […] For amplitude versus level functions, the wave I peak was identified by visual inspection at each sound level and the peak-to-peak amplitude computed.

[2] = Toxicity of systemic LY411575; assay type: in vivo; conditions: 50 mg/kg for 5 d
Experimental: For systemic administration, LY411575 (50 mg/kg) dissolved in 0.5% (wt/vol) methylcellulose (WAKO) was injected orally once daily for 5 consecutive d. Hearing was measured by ABR at 1 d before, 2 d, 1, 2 week, 1, 2 and 3 months after noise exposure.
Preliminary range finding experiments for drug treatment were carried out by systemic injection and were limited by toxicity. A minimal dosing regimen for an effect on the thymus weight was chosen (43, 44).

C[C@H](NC(=O)[C@@H](O)c1cc(F)cc(F)c1)C(=O)N[C@@H]1C(=O)N(C)c2ccccc2-c2ccccc21 [LY411575, N-2((2S)-2-(3,5-difluorophenyl)-2-hydroxyethanoyl)-N1-((7S)-5-methyl-6-oxo-6,7-dihydro-5H-dibenzo[b,d]azepin-7-yl)-l-alaninamide]
number of inner hair cells ([1]; any group): no significant differences | number of myosin VIIa-positive (hair) cells in the outer hair cell region ([1]; hair cell-ablated explants, cultured 3 d, p<0.05): increased | number of Sox2-positive (supporting) cells ([1]; mid-apex and mid-base of the cochlea, p<0.05): decrease | therapeutic benefit at lower dose (noise-damaged cochlea; 10 mg/kg body weight): no therapeutic benefit | noise-induced ABR threshold shift (noise-damaged cochlea; oral 50 mg/kg for 5 d, 4, 8 and 16 kHz): decreased | side-effects in treated mice [2]: significant side-effects | thymus total number of cells decreased to [2]: 1/40 | mice (of 12) that could be tested for ABR at 3 months; the rest died within the first week ([2]; deaths due to severe diarrhea and weight loss): 6 mice | thymus double positive fraction of CD4 and CD8 after treatment ([2]; decreased from 78.6%): 1.23% | weight loss in surviving mice ([2]; in 3 d): approximately 15% | spleen finding ([2]; in a week): severe atrophy
